From patent US20260130933A1, “PHARMACEUTICAL COMPOSITION FOR PREVENTION OR TREATMENT OF NEPHROPATHY AND/OR DIABETES MELLITUS, COMPRISING ENAVOGLIFLOZIN” (DAEWOONG PHARMACEUTICAL CO., LTD., priority 2022, published 2026)

Assay: Example 3: phase 3 trial, enavogliflozin 0.3 mg vs dapagliflozin 10 mg once a day for 24 weeks added to metformin and gemigliptin in patients with type 2 diabetes (same endpoints, rescue drug)
Type: in vivo, human
Method: 1) when Metformin (≥1,000 mg/Day) was Administered at a Constant Dose for at Least 8 Weeks Prior to Pre-Visit (Pre-Screening) • Metformin (≥1,000 mg/day) and gemigliptin (50 mg/day) were co-administered during the 8-week stabilization period. […] 4) when Metformin (≥1,000 mg/Day) and Gemigliptin (50 mg/Day) were Co-Administered at Constant Doses for at Least 8 Weeks Prior to Pre-Visit (Prescreening) • Without a separate stabilization period, Pre-visit (pre-screening) was Visit 1 (screening).
Subjects who met the inclusion/exclusion criteria continued to receive metformin and gemigliptin while receiving a placebo of the clinical trial drug in a single-blind (subject-blinded) state for a 2-week run-in period.
Here, the randomized subjects were stratified according to the administration therapy (co-administration with two or less agents (one or two agents) or three or more agents) of a conventional hypoglycemic agent (before washout of another hypoglycemic agent) within 24 weeks prior to obtaining written informed consent and by an HbA1c value (<8% or ≥8%) at Visit 1 (screening) measured in the central laboratory.
The randomized subjects were administered two tablets of the clinical trial drug corresponding to each administration group once a day, and then visited the institution at weeks 6, 12, 18, and 24 during the 24-week administration period to conduct efficacy and safety assessments. In addition, during the clinical trial period, they were instructed to exercise regularly and control their diet without changing their daily life patterns.
• 1) Change in HbA1c at week 24 after administration of clinical trial drug compared to Visit 2 (randomization)
• 1) Change in HbA1c at each time point of weeks 6, 12, and 18 after administration of clinical trial drug compared to Visit 2 (randomization) • 2) Change in FPG at each time point of weeks 6, 12, 18, and 24 after administration of clinical trial drug compared to Visit 2 (randomization) • 3) Proportion of subjects achieving HbA1c<7% at each time point of weeks 6, 12, 18, and 24 after administration of clinical trial drug • 4) Proportion of subjects achieving HbA1c<6.5% at each time point of weeks 6, 12, 18, and 24 after administration of clinical trial drug • 5) Proportion of subjects achieving therapeutic response (HbA1c change (HbA1c at Visit 2—HbA1c at each evaluation time point)>0.5% or HbA1c<7% at each evaluation time point compared to Visit 2 (randomization)) at each time point of weeks 6, 12, 18, and 24 after administration of clinical trial drug • 6) Proportion of subjects achieving therapeutic response (HbA1c change (HbA1c at Visit 2—HbA1c at each evaluation time point)>0.7% or HbA1c<7% at each evaluation time point compared to Visit 2 (randomization)) at each time point of weeks 6, 12, 18, and 24 after administration of clinical trial drug • 7) Proportion of subjects achieving therapeutic response (HbA1c change (HbA1c at Visit 2—HbA1c at each evaluation time point)>1% or HbA1c<7% at each evaluation time point compared to Visit 2 (randomization)) at each time point of weeks 6, 12, 18, and 24 after administration of clinical trial drug

[1] = week 6, modified per-protocol set 1, enavogliflozin 0.3 mg vs dapagliflozin 10 mg
[2] = week 6, modified per-protocol set 1, enavogliflozin 0.3 mg, dapagliflozin 10 mg

OC[C@H]1O[C@@H](c2cc(Cc3ccc(C4CC4)cc3)c(Cl)c3c2CCO3)[C@H](O)[C@@H](O)[C@@H]1O [Enavogliflozin, (2S,3R,4R,5S,6R)-2-(7-chloro-6 (4-cyclopropylbenzyl)-2,3-dihydrobenzofuran-4-yl)-6-(hydroxymethyl)tetrahydro-2H-pyran-3,4,5-triol]
Incidence of adverse events or adverse drug reactions between groups (24 weeks, vs dapagliflozin): no statistically significant differences
HbA1c, Mean (SD) (Baseline, PPS): 7.79%
HbA1c, Median (Baseline, PPS): 7.60%
Non-inferiority (margin 0.35) (HbA1c change at week 24, vs dapagliflozin): not inferior
HbA1c change from baseline, ANCOVA LS mean (SE) (Week 24, PPS): −0.92 % p
HbA1c change from baseline, Mean (SD) (Week 24, PPS): −0.93 % p
HbA1c change from baseline, Median (Week 24, PPS): −0.83 % p
HbA1c, Mean (SD) (Week 24, PPS): 6.86%
HbA1c, Median (Week 24, PPS): 6.76%
HbA1c change from baseline, LS mean difference (Week 24, PPS, enavogliflozin minus dapagliflozin): −0.06 % p
Non-inferiority (UCI < 0.35%) in HbA1c change (Week 24, PPS, enavogliflozin vs dapagliflozin): Yes
FPG change from baseline, LS mean (SE) (week 6): −25.96(1.42) mg/dL
HDL-C change from baseline, LS mean (SE) (week 6): 1.96(0.57) mg/dL
HOMA-IR change from baseline, LS mean (SE) (week 6): −0.94(0.15)
HOMA-β change from baseline, LS mean (SE) (week 6): 8.13(3.08)
HbA1c change from baseline, LS mean (SE) (week 6): −0.73(0.03) % p
LDL-C change from baseline, LS mean (SE) (week 6): 2.49(1.81) mg/dL
UACR change from baseline, LS mean (SE) (week 6): −8.76(3.43) g/kg
UGCR change from baseline, LS mean (SE) (week 6): 58.10(2.18) mg/mg
adiponectin change from baseline, LS mean (SE) (week 6): −0.10 (0.34) μg/mL
body weight change from baseline, LS mean (SE) (week 6): −1.92(0.17) kg
diastolic blood pressure change from baseline, LS mean (SE) (week 6): −2.04(0.70) mmHg
fasting C-peptide change from baseline, LS mean (SE) (week 6): −0.05(0.02) ng/mL
leptin change from baseline, LS mean (SE) (week 6): −1.83(0.45) ng/mL
systolic blood pressure change from baseline, LS mean (SE) (week 6): −2.76(0.90) mmHg
total cholesterol change from baseline, LS mean (SE) (week 6): 5.07 (1.97) mg/dL
triglyceride change from baseline, LS mean (SE) (week 6): −6.85(4.47) mg/dL
FPG change from baseline, LS mean difference (week 6, vs dapagliflozin): -3.24 mg/dL
HDL-C change from baseline, LS mean difference (week 6, vs dapagliflozin): 0.83 mg/dL
HOMA-IR change from baseline, LS mean difference (week 6, vs dapagliflozin): 0.05
HOMA-β change from baseline, LS mean difference (week 6, vs dapagliflozin): 4.93
HbA1c change from baseline, LS mean difference (week 6, vs dapagliflozin): −0.03 % p
LDL-C change from baseline, LS mean difference (week 6, vs dapagliflozin): 0.57 mg/dL
Odds ratio for achieving HbA1c<6.5% (week 6, vs dapagliflozin): 0.65
Odds ratio for achieving HbA1c<7% (week 6, vs dapagliflozin): 1.22
Odds ratio, therapeutic response (HbA1c change >0.5% or HbA1c<7%) (week 6, vs dapagliflozin): 1.52
Odds ratio, therapeutic response (HbA1c change >0.7% or HbA1c<7%) (week 6, vs dapagliflozin): 1.16
Odds ratio, therapeutic response (HbA1c change >1% or HbA1c<7%) (week 6, vs dapagliflozin): 1.38
UACR change from baseline, LS mean difference (week 6, vs dapagliflozin): 6.09 g/kg
UGCR change from baseline, LS mean difference (week 6, vs dapagliflozin): 12.35 mg/mg
adiponectin change from baseline, LS mean difference (week 6, vs dapagliflozin): -0.47 µg/mL
body weight change from baseline, LS mean difference (week 6, vs dapagliflozin): -0.13 kg
diastolic blood pressure change from baseline, LS mean difference (week 6, vs dapagliflozin): −0.16 mmHg
fasting C-peptide change from baseline, LS mean difference (week 6, vs dapagliflozin): -0.01 ng/mL
leptin change from baseline, LS mean difference (week 6, vs dapagliflozin): 0.20 ng/mL
systolic blood pressure change from baseline, LS mean difference (week 6, vs dapagliflozin): 0.73 mmHg
total cholesterol change from baseline, LS mean difference (week 6, vs dapagliflozin): 2.45 mg/dL
triglyceride change from baseline, LS mean difference (week 6, vs dapagliflozin): -1.46 mg/dL
Change from baseline in HDL-C, ANCOVA LS mean difference [1]: 0.83 mg/dL
Change from baseline in LDL-C, ANCOVA LS mean difference [1]: 0.57 mg/dL
Change from baseline in total cholesterol, ANCOVA LS mean difference [1]: 2.45 mg/dL
Change from baseline in triglycerides, ANCOVA LS mean difference [1]: -1.46 mg/dL
Change from baseline in HDL-C, ANCOVA LS mean [2]: 1.96 mg/dL
Change from baseline in HDL-C, Mean [2]: 1.90 mg/dL
Change from baseline in HDL-C, Median [2]: 2.00 mg/dL
Change from baseline in LDL-C, ANCOVA LS mean [2]: 2.49 mg/dL
Change from baseline in LDL-C, Mean [2]: 2.42 mg/dL
Change from baseline in LDL-C, Median [2]: -1.00 mg/dL
Change from baseline in total cholesterol, ANCOVA LS mean [2]: 5.07 mg/dL
Change from baseline in total cholesterol, Mean [2]: 4.65 mg/dL
Change from baseline in total cholesterol, Median [2]: 3.00 mg/dL
Change from baseline in triglycerides, ANCOVA LS mean [2]: -6.85 mg/dL
Change from baseline in triglycerides, Mean [2]: -4.37 mg/dL
Change from baseline in triglycerides, Median [2]: -1.00 mg/dL
Fasting HDL-C, Mean [2]: 47.99 mg/dL
Fasting HDL-C, Median [2]: 46.00 mg/dL
Fasting LDL-C, Mean [2]: 73.35 mg/dL
Fasting LDL-C, Median [2]: 68.00 mg/dL
Fasting total cholesterol, Mean [2]: 138.43 mg/dL
Fasting triglycerides, Mean [2]: 112.71 mg/dL
Fasting triglycerides, Median [2]: 101.00 mg/dL
fasting Total cholesterol, Median [2]: 134.00 mg/dL
